Experiments:
[1] = molecular target: T1, SMARCA2 (Homo sapiens, UniProt P51531); test: SMARCA2 HiBiT degradation assay in HeLa cells; type: cell-based; settings: 18 hours; for DC50: read-out: SMARCA2 IC50; for Dmax: HeLa
T1 construct: SMARCA2-HiBiT knock-in Hela monoclonal cell (CS302366); host or cells: HeLa (CRISPR HiBiT knock-in monoclonal line, heterozygous)
How it was run: (§1)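 Degradation measured as HiBiT luminescence (Nano-Glo lytic reagent) after 18 h compound exposure at 37° C. Cells were HeLa clones carrying heterozygous HiBiT tags on SMARCA2 or SMARCA4, 2500 per well; compounds at 3-fold serial dilution from 10 μM.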

[2] = molecular target: T2, SMARCA4 (Homo sapiens, UniProt P51532); test: SMARCA4 HiBiT degradation assay in HeLa cells; type: cell-based; settings: 18 hours; for Dmax: HeLa
T2 construct: SMARCA4-HiBiT knock-in Hela monoclonal cell (CS3023226) were purchased from Promega; host or cells: HeLa (CRISPR HiBiT knock-in monoclonal line, heterozygous)
How it was run: as §1

T1 sequence (P51531 whole entry): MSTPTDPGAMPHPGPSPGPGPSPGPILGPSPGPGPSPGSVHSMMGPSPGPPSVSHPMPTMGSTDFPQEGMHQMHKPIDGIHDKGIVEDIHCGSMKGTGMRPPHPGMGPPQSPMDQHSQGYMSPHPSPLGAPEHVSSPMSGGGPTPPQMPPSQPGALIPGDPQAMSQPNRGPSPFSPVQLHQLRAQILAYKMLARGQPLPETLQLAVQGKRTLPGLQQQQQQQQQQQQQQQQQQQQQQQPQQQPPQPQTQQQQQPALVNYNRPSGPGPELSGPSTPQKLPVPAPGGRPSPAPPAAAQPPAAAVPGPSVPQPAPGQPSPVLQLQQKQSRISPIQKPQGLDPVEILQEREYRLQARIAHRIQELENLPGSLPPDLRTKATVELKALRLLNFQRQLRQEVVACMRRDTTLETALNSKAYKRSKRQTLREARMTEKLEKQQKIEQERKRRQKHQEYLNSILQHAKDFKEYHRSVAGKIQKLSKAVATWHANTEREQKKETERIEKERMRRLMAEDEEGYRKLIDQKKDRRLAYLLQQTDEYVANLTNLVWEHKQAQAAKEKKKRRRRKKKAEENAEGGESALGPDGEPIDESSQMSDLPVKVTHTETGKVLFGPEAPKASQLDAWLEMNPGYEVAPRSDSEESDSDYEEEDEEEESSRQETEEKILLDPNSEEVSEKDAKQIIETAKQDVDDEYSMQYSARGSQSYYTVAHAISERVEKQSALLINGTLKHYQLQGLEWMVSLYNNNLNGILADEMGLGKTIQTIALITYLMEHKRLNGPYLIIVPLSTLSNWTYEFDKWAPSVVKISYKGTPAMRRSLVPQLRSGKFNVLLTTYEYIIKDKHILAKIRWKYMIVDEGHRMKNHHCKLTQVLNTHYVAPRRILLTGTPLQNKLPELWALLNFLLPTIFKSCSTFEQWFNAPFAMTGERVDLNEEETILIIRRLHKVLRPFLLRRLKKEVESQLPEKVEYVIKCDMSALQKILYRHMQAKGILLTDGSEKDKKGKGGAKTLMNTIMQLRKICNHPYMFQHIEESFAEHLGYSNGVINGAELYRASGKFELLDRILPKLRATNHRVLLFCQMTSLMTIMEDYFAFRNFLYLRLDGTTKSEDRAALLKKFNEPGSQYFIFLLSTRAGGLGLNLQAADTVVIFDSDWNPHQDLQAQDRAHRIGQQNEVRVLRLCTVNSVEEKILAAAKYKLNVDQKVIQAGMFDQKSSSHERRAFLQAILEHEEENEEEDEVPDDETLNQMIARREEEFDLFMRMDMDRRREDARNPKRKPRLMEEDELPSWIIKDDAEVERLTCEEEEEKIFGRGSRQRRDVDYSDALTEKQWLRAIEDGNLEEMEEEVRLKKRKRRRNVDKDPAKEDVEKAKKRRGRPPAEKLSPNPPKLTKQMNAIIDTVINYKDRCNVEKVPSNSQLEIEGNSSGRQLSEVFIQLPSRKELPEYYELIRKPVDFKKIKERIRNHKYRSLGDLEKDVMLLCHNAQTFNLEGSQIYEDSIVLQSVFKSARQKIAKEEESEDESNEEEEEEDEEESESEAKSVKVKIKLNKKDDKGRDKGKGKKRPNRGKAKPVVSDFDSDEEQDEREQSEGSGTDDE
T2 sequence (P51532 whole entry): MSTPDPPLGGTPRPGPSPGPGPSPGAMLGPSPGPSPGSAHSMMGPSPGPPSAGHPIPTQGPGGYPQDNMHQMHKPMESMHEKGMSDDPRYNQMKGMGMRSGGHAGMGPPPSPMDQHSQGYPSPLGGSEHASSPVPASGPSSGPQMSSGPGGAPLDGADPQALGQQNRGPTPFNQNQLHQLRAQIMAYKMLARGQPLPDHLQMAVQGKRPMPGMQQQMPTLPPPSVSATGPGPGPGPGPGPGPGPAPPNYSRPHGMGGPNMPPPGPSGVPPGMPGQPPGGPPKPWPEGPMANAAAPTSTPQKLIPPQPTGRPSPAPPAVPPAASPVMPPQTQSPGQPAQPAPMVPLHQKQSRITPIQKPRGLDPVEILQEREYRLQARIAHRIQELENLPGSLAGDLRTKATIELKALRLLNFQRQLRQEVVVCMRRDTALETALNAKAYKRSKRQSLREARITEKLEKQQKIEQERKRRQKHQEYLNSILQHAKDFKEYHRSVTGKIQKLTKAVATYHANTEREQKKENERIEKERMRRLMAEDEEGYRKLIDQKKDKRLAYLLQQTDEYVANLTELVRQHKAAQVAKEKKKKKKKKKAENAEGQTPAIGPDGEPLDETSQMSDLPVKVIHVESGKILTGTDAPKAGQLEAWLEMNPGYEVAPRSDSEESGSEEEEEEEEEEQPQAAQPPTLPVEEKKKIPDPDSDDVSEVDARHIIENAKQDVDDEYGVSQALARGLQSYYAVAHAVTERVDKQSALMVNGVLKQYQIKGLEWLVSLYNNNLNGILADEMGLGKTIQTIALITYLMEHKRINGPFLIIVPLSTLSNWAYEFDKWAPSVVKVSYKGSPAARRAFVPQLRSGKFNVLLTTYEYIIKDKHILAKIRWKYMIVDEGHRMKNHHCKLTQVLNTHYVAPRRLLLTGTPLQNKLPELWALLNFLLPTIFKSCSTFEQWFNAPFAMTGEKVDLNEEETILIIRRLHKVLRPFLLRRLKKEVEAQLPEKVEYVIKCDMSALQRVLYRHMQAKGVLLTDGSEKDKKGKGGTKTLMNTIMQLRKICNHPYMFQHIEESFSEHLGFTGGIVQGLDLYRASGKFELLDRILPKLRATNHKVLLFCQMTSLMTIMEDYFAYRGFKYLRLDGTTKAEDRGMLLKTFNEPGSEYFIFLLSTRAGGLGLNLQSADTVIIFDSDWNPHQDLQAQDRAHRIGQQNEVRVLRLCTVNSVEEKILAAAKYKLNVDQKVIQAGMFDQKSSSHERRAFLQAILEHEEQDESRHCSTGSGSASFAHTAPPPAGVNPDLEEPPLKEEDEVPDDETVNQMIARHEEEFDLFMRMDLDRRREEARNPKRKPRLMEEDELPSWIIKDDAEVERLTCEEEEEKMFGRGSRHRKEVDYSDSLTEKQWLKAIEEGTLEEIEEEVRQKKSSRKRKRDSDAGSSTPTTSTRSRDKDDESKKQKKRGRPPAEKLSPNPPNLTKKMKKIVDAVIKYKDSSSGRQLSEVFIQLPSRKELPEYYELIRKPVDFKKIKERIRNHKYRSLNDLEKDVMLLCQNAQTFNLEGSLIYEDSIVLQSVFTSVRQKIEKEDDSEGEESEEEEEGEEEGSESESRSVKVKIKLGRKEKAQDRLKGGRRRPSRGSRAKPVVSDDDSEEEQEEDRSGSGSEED

Compound: C[C@@H]1CN(CC2CCN(c3ccc4c(c3)C(=O)N(C3CCC(=O)NC3=O)C4)CC2)[C@@H](C)CN1C(=O)N1CCN2c3cc(-c4cccc(F)c4O)nnc3NCC2(C)C1 (stereo partly drawn) [Example 57, 3-(6-(4-(((2S,5R)-4-(2-(3-fluoro-2-hydroxyphenyl)-6a-methyl-6,6a,7,8,9,10-hexahydro-5H-pyrazino[1′,2′:4,5]pyrazino[2,3-c]pyridazine-8-carbonyl)-2,5-dimethyl-piperazin-1-yl)methyl)piperidin-1-yl)-1-oxoisoindolin-2-yl)piperidine-2,6-dione]
- DC50 [1]: < 100 nM
- Dmax [1]: > 75%
- DC50 [2]: < 100 nM
- Dmax [2]: < 50%

Compound: CC12CNc3nnc(-c4cccc(F)c4O)cc3N1CCN(C[C@H]1CC[C@H](CN3CCN(c4ccc5c(c4)C(=O)N(C4CCC(=O)NC4=O)C5)CC3)CC1)C2 (single isomer, unassigned) [Example 115]
- DC50 [1]: < 100 nM
- Dmax [1]: > 75%
- DC50 [2]: < 100 nM
- Dmax [2]: 50 to 75%

Compound: C[C@@H]1CN(CC2CCN(c3ccc4c(c3)C(=O)N(C3CCC(=O)NC3=O)C4)CC2)C[C@@H](C)N1C(=O)N1CCN2c3cc(-c4cccc(F)c4O)nnc3NCC2(C)C1 (single isomer, unassigned) [Example 13]
- DC50 [1]: < 100 nM
- Dmax [1]: > 75%
- DC50 [2]: < 100 nM
- Dmax [2]: < 50%

Compound: COCC12CNc3nnc(-c4cccc(F)c4O)cc3N1CCN(C(=O)N1CCN(CC3CCN(c4ccc5c(c4)C(=O)N([C@H]4CCC(=O)NC4=O)C5)CC3)CC1(C)C)C2 (single isomer, unassigned) [Example 93]
- DC50 [1]: < 100 nM
- Dmax [1]: > 75%
- DC50 [2]: > 1000 nM
- Dmax [2]: < 50%

Compound: CCC12CNc3nnc(-c4cccc(F)c4O)cc3N1CCN(C(=O)N1CCN(CC3CCN(c4ccc5c(c4)C(=O)N(C4CCC(=O)NC4=O)C5)CC3)CC1(C)C)C2 (single isomer, unassigned) [Example 80, 3-(6-(4-((4-(6a-ethyl-2-(3-fluoro-2-hydroxyphenyl)-6,6a,7,8,9,10-hexahydro-5H-pyrazino-[1′,2′:4,5]pyrazino[2,3-c]pyridazine-8-carbonyl)-3,3-dimethylpiperazin-1-yl)methyl)-piperidin-1-yl)-1-oxoisoindolin-2-yl)piperidine-2,6-dione]
- SMARCA2 DMax % [1]: A (A=Dmax>75%)
- DC50 [1]: < 100 nM
- DC50 [2]: < 100 nM
- SMARCA4 DMax % [2]: B (B=50%<Dmax≤75%)

Compound: C[C@@H]1CN(CC2CCN(c3ccc4c(c3)C(=O)N(C3CCC(=O)NC3=O)C4)CC2)C[C@H](C)N1C(=O)N1CCN2c3cc(-c4cccc(F)c4O)nnc3NCC2(C)C1 (single isomer, unassigned) [Example 11]
- DC50 [1]: < 100 nM
- Dmax [1]: > 75%
- DC50 [2]: < 100 nM
- SMARCA4 DMax % [2]: B (B=50%<Dmax≤75%)

Compound: O=C1CCC(N2Cc3ccc(N4CC[C@H](CN5C[C@@H]6[C@H](C5)[C@H]6CN5CCN6c7cc(-c8cc(F)cc(F)c8O)nnc7NC[C@H]6C5)[C@@H](F)C4)cc3C2=O)C(=O)N1 (single isomer, unassigned) [Example 37]
- DC50 [1]: < 100 nM
- Dmax [1]: > 75%
- DC50 [2]: < 100 nM

Compound: CC1(C)CN(CC2CCN(c3ccc4c(c3)C(=O)N(C3CCC(=O)NC3=O)C4)CC2)CCC1C(=O)N1CCN2c3cc(-c4cc(F)cc(F)c4O)nnc3NC[C@H]2C1 (stereo partly drawn) [Example 119, 3-(6-(4-((4-((S)-2-(3,5-difluoro-2-hydroxyphenyl)-6,6a,7,8,9,10-hexahydro-5H-pyrazino[1′,2′:4,5]pyrazino[2,3-c]pyridazine-8-carbonyl)-3,3-dimethylpiperidin-1-yl)methyl)piperidin-1-yl)-1-oxoisoindolin-2-yl)piperidine-2,6-dione]
- DC50 [1]: < 100 nM
- Dmax [1]: > 75%
- DC50 [2]: 100 to 1000 nM
- Dmax [2]: < 50%

Compound: CCC12CNc3nnc(-c4cccc(Cl)c4O)cc3N1CCN(C(=O)N1CCN(CC3CCN(c4ccc5c(c4)C(=O)N([C@H]4CCC(=O)NC4=O)C5)CC3)CC1(C)C)C2 (single isomer, unassigned) [Example 76]
- DC50 [1]: < 100 nM
- Dmax [1]: > 75%
- DC50 [2]: < 100 nM
- Dmax [2]: 50 to 75%

Compound: C[C@H]1CN2c3cc(-c4cc(F)cc(F)c4O)nnc3NC[C@H]2CN1C[C@H]1[C@@H]2CN(CC3CN(c4ccc5c(c4)C(=O)N(C4CCC(=O)NC4=O)C5)CCO3)C[C@@H]21 (stereo partly drawn) [Example 50, 3-(6-(2-(((1R,5S,6r)-6-(((6aS,9S)-2-(3,5-difluoro-2-hydroxyphenyl)-9-methyl-5,6,6a,7,9,10-hexahydro-8H-pyrazino[1′,2′:4,5]pyrazino[2,3-c]pyridazin-8-yl)methyl)-3-azabicyclo[3.1.0]hexan-3-yl)methyl)morpholino)-1-oxoisoindolin-2-yl)piperidine-2,6-dione]
- DC50 [1]: < 100 nM
- Dmax [1]: > 75%
- DC50 [2]: < 100 nM
- Dmax [2]: 50 to 75%

Compound: C[C@@H]1CN(CC2CCN(c3ccc4c(c3)C(=O)N(C3CCC(=O)NC3=O)C4)CC2)C[C@H](C)N1C(=O)N1CCN2c3cc(-c4cccc(Cl)c4O)nnc3NCC2(C)C1 (stereo partly drawn) [Example 30, 3-(6-(4-(((3R,5S)-4-(2-(3-chloro-2-hydroxyphenyl)-6a-methyl-6,6a,7,8,9,10-hexahydro-5H-pyrazino[1′,2′:4,5]pyrazino[2,3-c]pyridazine-8-carbonyl)-3,5-dimethylpiperazin-1-yl)methyl)piperidin-1-yl)-1-oxoisoindolin-2-yl)piperidine-2,6-dione]
- DC50 [1]: < 100 nM
- Dmax [1]: > 75%
- DC50 [2]: < 100 nM
- Dmax [2]: 50 to 75%

Compound: C[C@@H]1CN(CC2CCN(c3ccc4c(c3)C(=O)N([C@H]3CCC(=O)NC3=O)C4)CC2)C[C@H](C)N1C(=O)N1CCN2c3cc(-c4cccc(F)c4O)nnc3NCC2(C(F)(F)F)C1 (single isomer, unassigned) [Example 95]
- DC50 [1]: < 100 nM
- Dmax [1]: > 75%
- DC50 [2]: < 100 nM
- Dmax [2]: > 75%

Compound: C[C@@H]1CN(CC2CCN(c3ccc4c(c3)C(=O)N(C3CCC(=O)NC3=O)C4)CC2)C[C@H](C)N1C(=O)N1CCN2c3cc(-c4cccc(F)c4O)nnc3NC[C@H]2C1 (stereo partly drawn) [Example 1, 3-(6-(4-(((3R,5S)-4-((S)-2-(3-fluoro-2-hydroxyphenyl)-6,6a,7,8,9,10-hexahydro-5H-pyrazino[1′,2′:4,5]pyrazino[2,3-c]pyridazine-8-carbonyl)-3,5-dimethylpiperazin-1-yl)methyl)piperidin-1-yl)-1-oxoisoindolin-2-yl)piperidine-2,6-dione]
- DC50 [1]: < 100 nM
- Dmax [1]: > 75%
- DC50 [2]: < 100 nM
- Dmax [2]: < 50%

Compound: C[C@@H]1CN(CC2CCN(c3ccc4c(c3)C(=O)N([C@H]3CCC(=O)NC3=O)C4)CC2)C[C@H](C)N1C(=O)N1CCN2c3cc(-c4cc(F)cc(F)c4O)nnc3NC[C@H]2C1 [Example 17, (S)-3-(6-(4-(((3S,5R)-4-((S)-2-(3,5-difluoro-2-hydroxyphenyl)-6,6a,7,8,9,10-hexahydro-5H-pyrazino[1′,2′:4,5]pyrazino[2,3-c]pyridazine-8-carbonyl)-3,5-dimethylpiperazin-1-yl)methyl)piperidin-1-yl)-1-oxoisoindolin-2-yl)piperidine-2,6-dione]
- DC50 [1]: < 100 nM
- Dmax [1]: > 75%
- DC50 [2]: < 100 nM
- Dmax [2]: 50 to 75%

— patent US20230365576A1, “BRM Targeting Compounds And Associated Methods Of Use” (Prelude Therapeutics Incorporated, priority 2022, published 2023)
